Laboratory results published in US9657014B2, “Substituted 1,6-naphthyridines” (Hoffmann-La Roche Inc., priority 2012, dated 2017).

tested on: human embryonic stem cell derived neural stem cells (NSCs); assay: Neural stem cell proliferation assay (neurogenesis assay); type: cell-based; settings: Homo sapiens, Neural stem cell, 96 h; Table 1, novel compounds; concentration at which 150% activity of control (100%) is reached; ATP levels (CellTiterGlo) after 4 days incubation
Method: Neural Stem Cell Proliferation Assay
Neurogenic properties of small molecules are determined based on the proliferation of human embryonic stem cell derived neural stem cells (NSCs) which were derived via a dual smad inhibition as previously described (Chambers, S. M., et al., Highly efficient neural conversion of human ES and iPS cells by dual inhibition of SMAD signaling, Nature biotechnology, 2009. 27 (3): p. 275-80.)
Compounds respond is measured by the increase in cells based on ATP levels (Promega:CellTiterGlo®) after an incubation period of 4 days.
NSCs are thawed and expanded over 3 passages. On the 14th day, NSCs are seeded in Polyornithin/Laminin coated 384 well plates at a cell density of 21,000 cells/cm^2 in a media volume of 38 μl.
4 hours after cell seeding, compound solutions are added at a volume of 2 μl. Stock solutions of the compounds (water, 5% DMSO) are diluted to obtain a dose response (11 points, dilution factor is 2), ranging from 8 μM to 8 nM. Controls are run to consistently determine the neurogenic properties of the cells:
Negative (neutral) control is cell culture Media (final DMSO concentration: 0.25%).
Positive controls are: • 1. cell culture Media+100 ng/ml FGF2 (final DMSO concentration: 0.1%) • 2. cell culture Media+20 ng/ml EGF (final DMSO concentration: 0.1%) • 3. cell culture Media+100 ng/ml Wnt3a (final DMSO concentration: 0.1%)
After 4 days incubation at 37° C., 5% CO2, the amount of ATP per well is quantified. The ATP concentration is proportional to the cell number. ATP is quantified by using the Promega CellTiterGlo® kit. The CellTiterGlo® reagents contain a cell lysis buffer, a thermo stable luciferase (UltraGlo™ recombinant luciferase), magnesium and luciferin. Luciferin reacts with ATP producing oxyluciferin, AMP and light. The luminescence signal is proportional to the ATP content.
The value of negative (neutral) control is determined for each assay plate by taking the average of 16 negative control wells. The neurogenic compound response is calculated for each compound as (compound/Negative Control)*100.
The values of EC150 from the dose response curve are determined for each test compound. The EC150 is the compound concentration at which 150% activity of control (100%) is reached.

Structure (SMILES) | EC (150% of control)
NC(=O)c1ccc2cncc(-c3cccc(OCC(F)(F)F)c3)c2n1 [Example 166, 8-(3-(2,2,2-Trifluoroethoxyl)phenyl)-1,6-naphthyridine-2-carboxamide] | 0.06 µM
O=C(NCC(F)(F)F)c1ccc2cncc(-c3ccccc3F)c2n1 [Example 125, 8-(2-Fluorophenyl)-N-(2,2,2-trifluoroethyl)-1,6-naphthyridine-2-carboxamide] | 0.04 µM
COc1ccccc1-c1cncc2ccc(C(=O)NCc3ccccc3)nc12 [Example 12, N-Benzyl-8-(2-methoxyphenyl)-1,6-naphthyridine-2-carboxamide] | 0.17 µM
CC(C)(C)CNC(=O)c1ccc2cncc(-c3ccccc3F)c2n1 [Example 118, 8-(2-Fluorophenyl)-N-neopentyl-1,6-naphthyridine-2-carboxamide] | 0.04 µM
COc1ccc(-c2cncc3ccc(C(=O)NCCC(F)(F)F)nc23)cc1 [Example 35, 8-(4-Methoxyphenyl)-N-(3,3,3-trifluoropropyl)-1,6-naphthyridine-2-carboxamide] | 1.74 µM
O=C(NCc1ccncc1)c1ccc2cncc(-c3ccccc3Cl)c2n1 [Example 30, 8-(2-Chlorophenyl)-N-(pyridin-4-ylmethyl)-1,6-naphthyridine-2-carboxamide] | 0.49 µM
Cc1cc2cncc(-c3ccc(C#N)cc3)c2nc1C(N)=O [Example 155, 8-(4-Cyanophenyl)-3-methyl-1,6-naphthyridine-2-carboxamide] | 0.7 µM
NC(=O)c1ccc2cncc(-c3ccc4c(c3)OCO4)c2n1 [Example 91, 8-(Benzo[d][1,3]dioxol-5-yl)-1,6-naphthyridine-2-carboxamide] | 0.03 µM
COc1ccc(-c2cncc3ccc(C(=O)NCc4cccnc4)nc23)cc1 [Example 22, 8-(4-Methoxyphenyl)-N-(pyridin-3-ylmethyl)-1,6-naphthyridine-2-carboxamide] | 0.03 µM
COc1ccccc1CNC(=O)c1ccc2cncc(-c3ccc(Cl)cc3)c2n1 [Example 47, 8-(4-Chlorophenyl)-N-(2-methoxybenzyl)-1,6-naphthyridine-2-carboxamide] | 0.13 µM
O=C(NCc1ccccc1)c1ccc2cncc(-c3cccc(Cl)c3)c2n1 [Example 14, N-Benzyl-8-(3-chlorophenyl)-1,6-naphthyridine-2-carboxamide] | 0.54 µM
O=C(NCCCn1ccnc1)c1ccc2cncc(-c3ccc(Cl)cc3)c2n1 [Example 37, N-(3-(1H-Imidazol-1-yl)propyl)-8-(4-chlorophenyl)-1,6-naphthyridine-2-carboxamide] | 0.12 µM
CN(C)c1cc(-c2cncc3ccc(C(N)=O)nc23)ccn1 [Example 140, 8-(2-(Dimethylamino)pyridin-4-yl)-1,6-naphthyridine-2-carboxamide] | 0.147 µM
O=C(c1ccc2cncc(-c3ccc(Cl)cc3)c2n1)N1CCCCC1 [Example 56, (8-(4-Chlorophenyl)-1,6-naphthyridin-2-yl)(piperidin-1-yl)methanone] | 1.51 µM
COCCN(Cc1ccccc1)C(=O)c1ccc2cncc(-c3ccc(OC)cc3)c2n1 [Example 34, N-Benzyl-N-(2-methoxyethyl)-8-(4-methoxyphenyl)-1,6-naphthyridine-2-carboxamide] | 0.21 µM
O=C(c1ccc2cncc(-c3ccc(Cl)cc3)c2n1)N1CCS(=O)(=O)CC1 [Example 74, [8-(4-Chloro-phenyl)-[1,6]naphthyridin-2-yl]-(1,1-dioxo-thiomorpholin-4-yl)-methanone] | 1.68 µM

Structure (SMILES) | EC (150% of control)
Cn1cc(NC(=O)c2ccc3cncc(-c4ccc(Cl)cc4)c3n2)cn1 [Example 55, 8-(4-Chlorophenyl)-N-(1-methyl-1H-pyrazol-4-yl)-1,6-naphthyridine-2-carboxamide] | 0.25 µM
NC(=O)c1ccc2cncc(C3=CCOCC3)c2n1 [Example 146, 8-(3,6-Dihydro-2H-pyran-4-yl)-1,6-naphthyridine-2-carboxamide] | 0.21 µM
CN(C)S(=O)(=O)c1ccc(-c2cncc3ccc(C(N)=O)nc23)cc1 [Example 106, 8-(4-(N,N-Dimethylsulfamoyl)phenyl)-1,6-naphthyridine-2-carboxamide] | 0.19 µM
CS(=O)(=O)c1ccc(CNC(=O)c2ccc3cncc(-c4ccc(F)c(F)c4)c3n2)cc1 [Example 115, 8-(3,4-Difluorophenyl)-N-(4-(methylsulfonyl)benzyl)-1,6-naphthyridine-2-carboxamide] | 1.95 µM
CC(NC(=O)c1ccc2cncc(-c3ccccc3Cl)c2n1)C(C)(C)O (stereo not drawn) [Example 171, 8-(2-Chlorophenyl)-N-(3-hydroxy-3-methylbutan-2-yl)-1,6-naphthyridine-2-carboxamide] | 0.12 µM
CS(=O)(=O)CCNC(=O)c1ccc2cncc(-c3ccc(F)cc3F)c2n1 [Example 129, 8-(2,4-Difluorophenyl)-N-(2-(methylsulfonyl)ethyl)-1,6-naphthyridine-2-carboxamide] | 0.06 µM
NC(=O)c1ccc2cncc(-c3ccc(OC(F)(F)F)cc3)c2n1 [Example 95, 8-(4-(Trifluoromethoxy)phenyl)-1,6-naphthyridine-2-carboxamide] | 0.05 µM
CS(=O)(=O)CCNC(=O)c1ccc2cncc(-c3ccc(Cl)cc3)c2n1 [Example 72, 8-(4-Chlorophenyl)-N-(2-(methylsulfonyl)ethyl)-1,6-naphthyridine-2-carboxamide] | 0.1 µM
CS(=O)(=O)CCNC(=O)c1ccc2cncc(-c3cc(F)ccc3F)c2n1 [Example 138, 8-(2,5-Difluorophenyl)-N-(2-(methylsulfonyl)ethyl)-1,6-naphthyridine-2-carboxamide] | 0.26 µM
COCCNC(=O)c1ccc2cncc(-c3ccccc3Cl)c2n1 [Example 8, 8-(2-Chlorophenyl)-N-(2-methoxyethyl)-1,6-naphthyridine-2-carboxamide] | 0.33 µM
CC(NC(=O)c1ccc2cncc(-c3ccc(C(F)(F)F)cc3)c2n1)C(C)(C)O (stereo not drawn) [Example 161, N-(3-Hydroxy-3-methylbutan-2-yl)-8-(4-(trifluoromethyl)phenyl)-1,6-naphthyridine-2-carboxamide] | 0.06 µM
O=C(NCCCn1ccnc1)c1ccc2cncc(-c3cccc(Cl)c3)c2n1 [Example 36, N-(3-(1H-Imidazol-1-yl)propyl)-8-(3-chlorophenyl)-1,6-naphthyridine-2-carboxamide] | 1.04 µM
O=C(NCCO)c1ccc2cncc(-c3cccc(O)c3)c2n1 [Example 144, N-(2-Hydroxyethyl)-8-(3-hydroxyphenyl)-1,6-naphthyridine-2-carboxamide] | 0.16 µM
COc1ccc(-c2cncc3ccc(C(=O)NCCCc4ccccc4)nc23)cc1 [Example 25, 8-(4-Methoxyphenyl)-N-(3-phenylpropyl)-1,6-naphthyridine-2-carboxamide] | 0.67 µM
CC(NC(=O)c1ccc2cncc(-c3ccc(Cl)cc3)c2n1)C(C)(C)O (stereo not drawn) [Example 162, 8-(4-Chlorophenyl)-N-(3-hydroxy-3-methylbutan-2-yl)-1,6-naphthyridine-2-carboxamide] | 0.06 µM
CC(C)Cc1cncc2ccc(C(N)=O)nc12 [Example 136, 8-Isobutyl-1,6-naphthyridine-2-carboxamide] | 0.04 µM

same assay, conditions: Homo sapiens, Neural stem cell, 96 h; Table 2, known compounds; concentration at which 150% activity of control (100%) is reached; ATP levels (CellTiterGlo) after 4 days incubation

Structure (SMILES) | EC (150% of control)
COc1ccc(-c2cncc3ccc(C(=O)N4CCCCC4)nc23)cc1 [Example 183, [8-(4-Methoxy-phenyl)-[1,6]naphthyridin-2-yl]-piperidin-1-yl-methanone] | 1.25 µM
COc1ccc(-c2cncc3ccc(C(=O)NCc4ccc(C(F)(F)F)nc4)nc23)cc1 [Example 186, 8-(4-Methoxy-phenyl)-[1,6]naphthyridine-2-carboxylic acid (6-trifluoromethyl-pyridin-3-ylmethyl)-amide] | 0.67 µM
COc1ccccc1CNC(=O)c1ccc2cncc(-c3ccsc3)c2n1 [Example 202, 8-Thiophen-3-yl-[1,6]naphthyridine-2-carboxylic acid 2-methoxy-benzylamide] | 0.15 µM

same assay, conditions: Table 1, novel compounds; concentration at which 150% activity of control (100%) is reached; ATP levels (CellTiterGlo) after 4 days incubation

Structure (SMILES) | EC150
CC1(CNC(=O)c2ccc3cncc(-c4ccc(Cl)cc4)c3n2)CCC(=O)N1 (stereo not drawn) [Example 141, 8-(4-Chlorophenyl)-N-((2-methyl-5-oxopyrrolidin-2-yl)methyl)-1,6-naphthyridine-2-carboxamide] | 0.01 µM
